# Measured values from patent US20210268009A1, “Composition For Preventing Hair Loss Or Promoting Hair Regrowth” (LG Household & Health Care Ltd., priority 2018, published 2021).
# Experiments:
# DKK-1 = assay: Real-time PCR gene expression in dermal papilla cells: DKK-1; format: cell-based, human; conditions: for Expression of Genes (%): DKK-1: non-treated group = 100; for expression of DKK-1, result in words: summary of Table 10
# Description: (§1) In general, it is known that VEGF, IGF-1, FGF, or the like, secreted in dermal papilla cells induce an anagen stage of hair. In addition, versican is known as a marker of an anagen stage of hair and DKK-1 is known as a marker of a catagen stage of hair. Therefore, effects of rhaponticin, rhein, chrysophanol and physicon-O-d-glucopyranoside upon the signals of accelerating an anagen stage and those of inducing a catagen stage in dermal papilla cells were examined according to the present disclosure. In a 6-well culture plate, dermal papilla cells were seeded to each well at 1×10^5 and treated with 10 μg/mL of each of the samples of rhaponticin, rhein, chrysophanol, physicon-O-d-glucopyranoside and combinations thereof as shown in the following Table 10. Then, real-time PCR was used to determine expression of each of VEGF, versican and DKK-1 by using Taqman® probe (Thermo Fisher, Massachusetts, USA) as shown in the following Table 9. [table]
# [1] = test system: Human-derived dermal papilla cells (DPCs); assay: Dermal papilla cell proliferation, CCK-8 (Experimental Example 6); format: cell-based; conditions: for Dermal Papilla Cell Proliferation Ability (%): one day, control = 100; for proliferation of dermal papilla cells, result in words: summary of Table 8
# Description: Human-derived dermal papilla cells (DPCs) were purchased from PromoCell GmbH. The DPCs were cultured in a DMEM medium (Hyclone Inc., Utah, USA) containing 5% of fetal bovine serum (FBS; Gibco, NY, USA), 10 units/mL of penicillin and 100 μg/mL of streptomycin at 37° C. under 5% of CO2. The cultured DPCs were pipetted to a 96-well plate at 3,000 cells/well and cultured under the condition of 0.1% of serum for 24 hours. Then, the cultured cells were treated with 10 μg/mL of each of the samples of rhaponticin, rhein, chrysophanol, physicon-8-O-glucopyranoside and combinations thereof as shown in the following Table 8 for one day and then incubated, and DMSO (vehicle) diluted to 1:1000 in serum-free DMEM was used as a control and 2 μg/mL of minoxidil was used as a positive control . After incubation, a cell counting kit (CCK) was used to evaluate proliferation of cells. The culture medium was treated with CCK-8 at a ratio of 1:10, followed by incubation for 1 hour. After 1 hour, the absorbance of each well was determined at 450 nm. All tests were repeated three times and the average of absorbance value was calculated. The results are shown by the percentage of a test group as the result of the control is taken as 100.
# VEGF = assay: Real-time PCR gene expression in dermal papilla cells: VEGF; format: cell-based, human; conditions: for Expression of Genes (%): VEGF: non-treated group = 100; for expression of VEGF, result in words: summary of Table 10
# Description: as §1
# Versican = assay: Real-time PCR gene expression in dermal papilla cells: versican; format: cell-based, human; conditions: for Expression of Genes (%): Versican: non-treated group = 100; for expression of versican, result in words: summary of Table 10
# Description: as §1
# [2] = test system: Human-derived dermal papilla cells (DPCs); assay: Dermal papilla cell proliferation, CCK-8 (Experimental Example 2, escin); format: cell-based; conditions: one day; for Dermal Papilla Cell Proliferation Ability (%): control = 100
# Description: Human-derived dermal papilla cells (DPCs) were purchased from PromoCell GmbH. DPCs were cultured under the conditions of 37° C. and 5% CO2 by using a follicle dermal papilla cell growth medium and supplement mix recommended by PromoCell GmbH. The cultured DPCs were pipetted to a 96-well plate at 3,000 cells/well and cultured for 24 hours in the presence of 0.1% of blood serum. Then, the cultured cells were treated with escin at a concentration of 0.2, 0.5, 1.2 and 5 μg/mL for one day and then incubated, and DMSO (vehicle) diluted to 1:1000 in serum-free DMEM was used as a control. After incubation, a cell counting kit (CCK) was used to evaluate proliferation of cells. The culture medium was treated with CCK-8 at a ratio of 1:10, followed by incubation for 1 hour. After 1 hour, the absorbance of each well was determined at 450 nm. All tests were repeated three times and the average of absorbance value was calculated. The results are shown by the percentage of a test group with the result of the control taken as 100.
# [3] = test system: Wnt/β-catenin promoter activity (Wnt reporter HEK293SA cells); assay: Wnt/β-catenin promoter luciferase reporter analysis; format: cell-based; conditions: escin 5, 10 and 20 μg/mL, FIG. 1
# Description: In general, Wnt/β-catenin signals activated in dermal papilla cells are generated while a transition from a […] to an anagen stage occurs in the hair growth cycle, i.e. during a period from beginning of hair growth to an activation stage of hair growth. In addition, in a telogen stage and catagen stage, Wnt/β-catenin signals become weak or disappear to cause degradation of hair follicles and depilation. In this Experimental Example, it is determined how escin contributes to amplification of Wnt/β-catenin signals.
# As a positive control which amplifies Wnt/β-catenin signals, wnt3a protein was used. In addition, dimethyl sulfoxide (DMSO) was used as a negative control. In a 96-well culture plate, approximately 3×10^4 of Wnt reporter HEK293SA cells were seeded to each well and treatment with escin was carried out at a concentration of 5 μg/mL, 10 μg/mL and 20 μg/mL. Then, a luciferase assay kit (E1960) available from Promega Corp. was used to carry out reporter analysis according to the test method provided by the company. In addition, luminometer Victor (Perkin Elmer, Waltham, Mass., USA) was used to determine Wnt/β-catenin promoter activity.
# β-catenin = assay: Expression of β-catenin in dermal papilla cells (SDS-PAGE / anti-β-catenin antibody); format: cell-based, human; conditions: escin 0.2-5 μg/mL, 1 day; GAPDH control; FIG. 2
# Description: In dermal papilla cells in a catagen stage and a telogen stage, during which Wnt signals are inhibited, β-catenin is decomposed by GSK3-beta. However, in dermal papilla cells in an anagen stage, during which Wnt signals are amplified, activity of GSK3-beta is inhibited and β-catenin is not decomposed, resulting in an increase in expression of β-catenin. Human dermal papilla cells were pipetted to six well plates at about 500,000 cells/well, and treated with escin for 1 day at a concentration of 0.2, 0.5, 1.2 and 5 μg/mL, followed by incubation. After incubation, M-PER lysis buffer was used to cause lysis of the cells and the same amount of cell lysate was loaded on SDS-PAGE gel. The cell lysate loaded on SDS-PAGE gel was transferred to a nitrocellulose membrane and anti-β-catenin antibody was attached to the nitrocellulose membrane to detect protein. GAPDH was used as a control for correcting protein content. The amount of β-catenin increased by escin was determined.
Compound,Expression of Genes (%): DKK-1 (DKK-1; 10 μg/mL) [%],"expression of DKK-1, result in words (DKK-1)",Dermal Papilla Cell Proliferation Ability (%) ([1]; 10 μg/mL),"proliferation of dermal papilla cells, result in words [1]",Expression of Genes (%): VEGF (VEGF; 10 μg/mL) [%],"expression of VEGF, result in words (VEGF)",Expression of Genes (%): Versican (Versican; 10 μg/mL) [%],"expression of versican, result in words (Versican)",other results
COc1cc(OC2OC(CO)C(O)C(O)C2O)c2c(c1)C(=O)c1cc(C)cc(O)c1C2=O (stereo not drawn) [Physicon-8-O-d-glucopyranoside],75,reduce expression of DKK-1,148.3,excellent effect of accelerating proliferation of dermal papilla cells,164,increase expression of VEGF,175,increase expression,
Cc1cc(O)c2c(c1)C(=O)c1cccc(O)c1C2=O [Chrysophanol],123,reduce expression of DKK-1,152.0,excellent effect of accelerating proliferation of dermal papilla cells,250,increase expression of VEGF,158,increase expression,
COc1ccc(/C=C/c2cc(O)cc(O[C@@H]3O[C@H](CO)[C@@H](O)[C@H](O)[C@H]3O)c2)cc1O [Rhaponticin],112,reduce expression of DKK-1,162.7,excellent effect of accelerating proliferation of dermal papilla cells,210,increase expression of VEGF,130,increase expression,
O=C(O)c1cc(O)c2c(c1)C(=O)c1cccc(O)c1C2=O [Rhein],76,reduce expression of DKK-1,152.7,excellent effect of accelerating proliferation of dermal papilla cells,144,increase expression of VEGF,154,increase expression,
Escin,,,,,,,,,"Dermal Papilla Cell Proliferation Ability (%) ([2]; 0.2 μg/mL): 168.8%; Dermal Papilla Cell Proliferation Ability (%) ([2]; 0.5 μg/mL): 198.7%; Dermal Papilla Cell Proliferation Ability (%) ([2]; 1 μg/mL): 194.4%; Dermal Papilla Cell Proliferation Ability (%) ([2]; 2 μg/mL): 204.8%; Dermal Papilla Cell Proliferation Ability (%) ([2]; 5 μg/mL): 208.3%; DPC proliferation, result in words ([2]; escin 0.2-5 μg/mL): shows an effect of DPC proliferation; Wnt/β-catenin signal effect compared to the positive control wnt3a protein [3]: higher effect as compared to the positive control; amplification of Wnt/β-catenin signals as compared to the non-treated negative control ([3]; no concentration dependence, clear effect at about 20 μg/mL): approximately 11 times; amount of β-catenin in dermal papilla cells, result in words (β-catenin): significant increase in amount of β-catenin"
"Nc1cc(N2CCCCC2)nc(N)[n+]1[O-] [Minoxidil, 2,4-diamino-6-piperidinopyrimidine-3-oxide, reference compound]",,,,,,,,,Expression of Genes (%): DKK-1 (DKK-1; 2 μg/mL): 128%; Dermal Papilla Cell Proliferation Ability (%) ([1]; 2 μg/mL): 187.2%; Expression of Genes (%): VEGF (VEGF; 2 μg/mL): 110%; Expression of Genes (%): Versican (Versican; 2 μg/mL): 134%
